# Laboratory results from ChEMBL document CHEMBL4152244, “Discovery of new erbB4 inhibitors: Repositioning an orphan chemical library by inverse virtual screening” (Eur J Med Chem, 2018).
# Activity calls are given as the source filed them. No cut-off for these calls is given here.
# How the values were obtained:
# [1] = target: T1, Receptor tyrosine-protein kinase erbB-4 (Homo sapiens, UniProt Q15303); assay: Inhibition of recombinant human N-terminal GST-His6-fused erbB4 expressed in Sf9 insect cells at 10 uM using poly (Glu, Tyr) 4:1 as substrate after 60 mins in presence of [gamma-33P]-ATP by microplate scintillation counting method relative to control
# T1 sequence (Q15303 whole entry, the tested form may be a part): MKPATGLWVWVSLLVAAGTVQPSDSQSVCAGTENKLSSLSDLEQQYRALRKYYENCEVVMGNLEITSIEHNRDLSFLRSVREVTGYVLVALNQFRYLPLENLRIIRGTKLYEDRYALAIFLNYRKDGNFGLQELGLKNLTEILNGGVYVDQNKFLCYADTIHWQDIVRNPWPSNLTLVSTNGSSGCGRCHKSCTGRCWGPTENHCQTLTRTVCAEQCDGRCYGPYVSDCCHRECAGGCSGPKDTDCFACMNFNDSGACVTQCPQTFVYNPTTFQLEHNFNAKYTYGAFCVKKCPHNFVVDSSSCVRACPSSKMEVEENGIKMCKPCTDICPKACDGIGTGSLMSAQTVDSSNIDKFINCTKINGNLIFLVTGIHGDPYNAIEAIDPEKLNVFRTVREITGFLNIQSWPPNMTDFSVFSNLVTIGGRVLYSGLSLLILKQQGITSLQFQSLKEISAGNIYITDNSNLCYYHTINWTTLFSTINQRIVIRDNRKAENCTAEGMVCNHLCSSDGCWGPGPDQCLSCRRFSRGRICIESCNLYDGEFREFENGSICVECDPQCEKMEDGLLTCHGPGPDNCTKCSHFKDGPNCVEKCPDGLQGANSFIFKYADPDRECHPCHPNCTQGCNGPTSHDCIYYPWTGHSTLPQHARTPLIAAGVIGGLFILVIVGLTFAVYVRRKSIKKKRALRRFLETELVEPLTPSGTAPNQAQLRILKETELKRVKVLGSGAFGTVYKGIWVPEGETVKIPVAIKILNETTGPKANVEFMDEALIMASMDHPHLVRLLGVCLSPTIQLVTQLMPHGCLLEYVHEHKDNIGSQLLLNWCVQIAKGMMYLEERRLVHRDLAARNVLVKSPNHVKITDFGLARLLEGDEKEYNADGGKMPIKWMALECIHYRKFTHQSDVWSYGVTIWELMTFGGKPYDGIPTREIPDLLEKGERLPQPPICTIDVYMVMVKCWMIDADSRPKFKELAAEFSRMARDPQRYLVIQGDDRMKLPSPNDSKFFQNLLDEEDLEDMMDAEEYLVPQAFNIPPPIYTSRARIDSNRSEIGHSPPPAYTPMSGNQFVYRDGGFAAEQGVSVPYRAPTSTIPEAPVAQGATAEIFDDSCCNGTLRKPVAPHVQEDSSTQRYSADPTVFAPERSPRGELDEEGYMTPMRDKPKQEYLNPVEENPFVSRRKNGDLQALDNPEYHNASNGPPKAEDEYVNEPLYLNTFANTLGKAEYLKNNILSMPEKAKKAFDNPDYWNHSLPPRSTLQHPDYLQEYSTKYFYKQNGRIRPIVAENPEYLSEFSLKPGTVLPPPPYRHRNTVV
# [2] = target: T2, 3-phosphoinositide-dependent protein kinase 1 (Homo sapiens) (UniProt O15530); assay: Inhibition of recombinant human N-terminal His6-fused pdk1 expressed in Sf9 insect cells at 10 uM using tetra (LRRWSLG) as substrate after 60 mins in presence of [gamma-33P]-ATP by microplate scintillation counting method relative to control
# T2 sequence (whole entry): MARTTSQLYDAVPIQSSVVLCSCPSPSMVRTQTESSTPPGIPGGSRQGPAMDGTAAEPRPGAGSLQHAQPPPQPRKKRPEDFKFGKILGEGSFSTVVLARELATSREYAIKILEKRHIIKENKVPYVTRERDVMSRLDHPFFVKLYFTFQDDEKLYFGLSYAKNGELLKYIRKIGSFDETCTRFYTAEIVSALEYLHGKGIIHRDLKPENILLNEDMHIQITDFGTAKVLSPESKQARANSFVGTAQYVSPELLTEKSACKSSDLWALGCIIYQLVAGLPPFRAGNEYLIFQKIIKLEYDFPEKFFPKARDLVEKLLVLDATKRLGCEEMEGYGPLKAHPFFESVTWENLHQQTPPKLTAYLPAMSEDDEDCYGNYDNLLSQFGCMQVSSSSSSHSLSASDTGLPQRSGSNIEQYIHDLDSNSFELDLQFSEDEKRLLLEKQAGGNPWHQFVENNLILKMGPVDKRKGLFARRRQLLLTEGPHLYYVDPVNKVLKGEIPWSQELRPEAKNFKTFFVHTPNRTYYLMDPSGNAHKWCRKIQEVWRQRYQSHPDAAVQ
# [3] = target: Receptor tyrosine-protein kinase erbB-2 (Homo sapiens, UniProt P04626); assay: Inhibition of recombinant human N-terminal GST-His6-fused erbB2 expressed in Sf9 insect cells using poly (Glu, Tyr) 4:1 as substrate after 60 mins in presence of [gamma-33P]-ATP by microplate scintillation counting method
# Chain of Receptor tyrosine-protein kinase erbB-2 (P04626 whole entry, the tested form may be a part): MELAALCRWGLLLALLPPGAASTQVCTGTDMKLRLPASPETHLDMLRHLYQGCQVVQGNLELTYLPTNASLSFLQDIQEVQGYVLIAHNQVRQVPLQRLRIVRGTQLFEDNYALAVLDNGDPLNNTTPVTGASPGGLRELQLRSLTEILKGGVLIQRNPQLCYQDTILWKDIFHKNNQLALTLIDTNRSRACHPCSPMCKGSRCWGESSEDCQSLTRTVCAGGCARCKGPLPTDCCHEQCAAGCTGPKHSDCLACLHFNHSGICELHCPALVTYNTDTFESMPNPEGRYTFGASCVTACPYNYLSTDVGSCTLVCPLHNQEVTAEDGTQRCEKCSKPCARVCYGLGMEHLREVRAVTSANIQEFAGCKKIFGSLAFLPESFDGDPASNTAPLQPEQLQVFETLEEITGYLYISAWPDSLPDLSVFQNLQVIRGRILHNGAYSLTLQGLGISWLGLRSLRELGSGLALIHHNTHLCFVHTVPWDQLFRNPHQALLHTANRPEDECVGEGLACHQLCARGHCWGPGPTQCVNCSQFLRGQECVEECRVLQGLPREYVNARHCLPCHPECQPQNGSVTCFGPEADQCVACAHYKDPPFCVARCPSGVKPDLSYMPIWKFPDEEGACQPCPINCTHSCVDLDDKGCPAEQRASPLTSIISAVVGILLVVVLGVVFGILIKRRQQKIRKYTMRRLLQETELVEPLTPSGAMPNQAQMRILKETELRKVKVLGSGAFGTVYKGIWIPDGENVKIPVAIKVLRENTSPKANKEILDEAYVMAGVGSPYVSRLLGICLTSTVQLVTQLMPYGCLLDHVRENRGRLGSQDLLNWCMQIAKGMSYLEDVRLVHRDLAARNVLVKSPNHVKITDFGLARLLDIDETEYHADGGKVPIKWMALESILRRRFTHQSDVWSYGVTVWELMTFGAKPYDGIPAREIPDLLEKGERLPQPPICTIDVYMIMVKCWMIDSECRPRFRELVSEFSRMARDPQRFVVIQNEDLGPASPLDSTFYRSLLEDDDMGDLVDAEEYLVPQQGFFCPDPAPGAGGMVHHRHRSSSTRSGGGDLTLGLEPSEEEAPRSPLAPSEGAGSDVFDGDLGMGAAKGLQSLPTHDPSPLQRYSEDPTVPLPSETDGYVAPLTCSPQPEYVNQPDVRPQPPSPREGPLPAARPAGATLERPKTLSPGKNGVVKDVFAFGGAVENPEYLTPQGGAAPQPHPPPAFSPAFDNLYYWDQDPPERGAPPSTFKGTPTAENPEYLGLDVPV
# [4] = target: T1, Receptor tyrosine-protein kinase erbB-4; assay: Inhibition of recombinant human N-terminal GST-His6-fused erbB4 expressed in Sf9 insect cells using poly (Glu, Tyr) 4:1 as substrate after 60 mins in presence of [gamma-33P]-ATP by microplate scintillation counting method
# MCF7 [5] = assay: Induction of cell death in human MCF7 cells assessed as appearance of sub-G0 hypodiploid nuclei at 1 uM after 24 hrs by propidium iodide staining-based flow cytometric method; type: functional
# [6] = target: T3, Ephrin type-A receptor 3 (Homo sapiens) (UniProt P29320); assay: Inhibition of recombinant human N-terminal GST-His6-fused ephA3 expressed in Sf9 insect cells at 10 uM using poly (Glu, Tyr) 4:1 as substrate after 60 mins in presence of [gamma-33P]-ATP by microplate scintillation counting method relative to control
# T3 sequence (whole entry): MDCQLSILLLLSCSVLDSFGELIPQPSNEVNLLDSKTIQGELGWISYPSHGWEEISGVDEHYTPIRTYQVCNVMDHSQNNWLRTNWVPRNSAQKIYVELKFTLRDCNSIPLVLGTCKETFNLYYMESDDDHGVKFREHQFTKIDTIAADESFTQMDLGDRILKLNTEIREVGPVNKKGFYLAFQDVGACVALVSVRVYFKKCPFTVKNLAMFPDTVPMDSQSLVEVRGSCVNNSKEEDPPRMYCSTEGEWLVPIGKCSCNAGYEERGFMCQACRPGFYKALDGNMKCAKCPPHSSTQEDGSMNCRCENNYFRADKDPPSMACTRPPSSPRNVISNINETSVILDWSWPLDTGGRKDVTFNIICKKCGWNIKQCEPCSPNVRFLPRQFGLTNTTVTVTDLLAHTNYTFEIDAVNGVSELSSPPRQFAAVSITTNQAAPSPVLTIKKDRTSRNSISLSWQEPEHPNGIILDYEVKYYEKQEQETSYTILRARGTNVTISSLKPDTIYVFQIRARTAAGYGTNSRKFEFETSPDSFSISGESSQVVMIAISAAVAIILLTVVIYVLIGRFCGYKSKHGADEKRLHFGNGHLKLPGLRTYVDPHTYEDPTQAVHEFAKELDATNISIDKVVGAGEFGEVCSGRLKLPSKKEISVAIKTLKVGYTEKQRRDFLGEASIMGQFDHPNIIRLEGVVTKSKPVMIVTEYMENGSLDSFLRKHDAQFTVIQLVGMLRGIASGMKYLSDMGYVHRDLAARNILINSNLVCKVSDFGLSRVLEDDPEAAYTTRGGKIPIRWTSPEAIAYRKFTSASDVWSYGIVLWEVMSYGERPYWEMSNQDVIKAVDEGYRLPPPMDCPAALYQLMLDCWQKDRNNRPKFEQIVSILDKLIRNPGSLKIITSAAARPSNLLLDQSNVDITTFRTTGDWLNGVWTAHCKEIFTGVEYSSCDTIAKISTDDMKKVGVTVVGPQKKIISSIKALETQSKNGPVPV
# MCF7 [7] = assay: Cytotoxicity against human MCF7 cells after 24 hrs by MTT assay; type: functional, cell-based; conditions: MCF7, 24 h
# MCF7 [8] = assay: Cell cycle arrest in human MCF7 cells assessed as accumulation at G2/M phase at 1 uM after 24 hrs by propidium iodide staining-based flow cytometric method; type: functional
SMILES,inhibition [1],inhibition [2],IC50 [3],IC50 [4],Activity (MCF7 [5]),inhibition [6],IC50 (MCF7 [7]),Activity (MCF7 [8])
COc1ccc(F)cc1-c1cc(C(F)(F)F)cc(S(=O)(=O)NCCc2cccc(F)c2)c1,19.1%,40.5%,–,–,–,–,–,–
O=S(=O)(NCCc1cccc(F)c1)c1cc(-c2ccc(-c3cccs3)s2)cc(C(F)(F)F)c1,57%,40.3%,31.5 µM,8.05 µM,inactive,22%,9.09 µM,Active
O=S(=O)(NCCc1cccc(F)c1)c1cc(-c2cccc3c2oc2ccccc23)cc(C(F)(F)F)c1,50.5%,2.4%,–,–,–,11.1%,–,–
COc1cc(-c2cc(C(F)(F)F)cc(S(=O)(=O)NCCc3cccc(F)c3)c2)ccc1F,12.8%,27.6%,–,–,–,–,–,–
O=S(=O)(NCCc1cccc(F)c1)c1cc(-c2cccnc2)cc(C(F)(F)F)c1,15.7%,–,–,–,–,4.2%,–,–
COc1ncc(-c2cc(C(F)(F)F)cc(S(=O)(=O)NCCc3cccc(F)c3)c2)c(OC)n1,10.3%,–,–,–,–,–,–,–
COc1cc(-c2cc(C(F)(F)F)cc(S(=O)(=O)NCCc3cccc(F)c3)c2)c(OC)nn1,14.9%,–,–,–,–,–,–,–
COC(=O)c1ccc(-c2cc(C(F)(F)F)cc(S(=O)(=O)NCCc3cccc(F)c3)c2)cn1,15.8%,–,–,–,–,–,–,–
O=S(=O)(NCCc1cccc(F)c1)c1cc(-c2cc3ccccc3[nH]2)cc(C(F)(F)F)c1,4.6%,52.2%,–,–,–,22.7%,–,–
O=Cc1ccc(-c2cc(C(F)(F)F)cc(S(=O)(=O)NCCc3cccc(F)c3)c2)s1,22.2%,5.2%,–,–,–,7.8%,–,–
O=S(=O)(NCCc1cccc(F)c1)c1cc(-c2cccc3c2Sc2ccccc2S3)cc(C(F)(F)F)c1,57.9%,35%,10.4 µM,6.4 µM,–,32.8%,22.8 µM,–
O=S(=O)(NCCc1cccc(F)c1)c1cc(-c2cccc(S(=O)(=O)N3CCCC3)c2)cc(C(F)(F)F)c1,34.3%,5.7%,–,–,–,–,–,–
O=S(=O)(NCCc1cccc(F)c1)c1cc(-c2ccc(COc3cccc4ccccc34)cc2)cc(C(F)(F)F)c1,49%,35.6%,–,–,–,30.1%,–,–
COCCc1ccc(OCc2ccc(-c3cc(C(F)(F)F)cc(S(=O)(=O)NCCc4cccc(F)c4)c3)cc2)cc1,67.7%,42.8%,25.4 µM,6.43 µM,–,33.1%,45.1 µM,–
O=S(=O)(NCCc1cccc(F)c1)c1cc(-c2ccc(F)nc2)cc(C(F)(F)F)c1,7.5%,10.3%,–,–,–,–,–,–
Cc1noc(C)c1-c1cc(C(F)(F)F)cc(S(=O)(=O)NCCc2cccc(F)c2)c1,9%,–,–,–,–,–,–,–
O=S(=O)(NCCc1cccc(F)c1)c1cc(-c2ccc(COc3cccc(C(F)(F)F)c3)cc2)cc(C(F)(F)F)c1,67.9%,50.8%,18 µM,5.06 µM,–,28.5%,28.2 µM,–
O=S(=O)(NCCc1cccc(F)c1)c1cc(-c2ccccc2COc2cccc(C(F)(F)F)c2)cc(C(F)(F)F)c1,63.1%,52.7%,9.71 µM,4.41 µM,–,30.4%,44.2 µM,–
O=S(=O)(NCCc1cccc(F)c1)c1cc(-c2ccnc(F)c2)cc(C(F)(F)F)c1,18.4%,–,–,–,–,9.1%,–,–
